Structures are written as SMILES. “And” between values parts separate entries of the source, which are not always exact repeats. Equal values may be shown once.

Among the data in patent US8193191B2, “Urotensin II receptor antagonists” (Janssen Pharmaceutica N.V., priority 2006, dated 2012) are inhibition and IC50 values, retold here.

The assay has as its target T1, rat GPR14 (U-II receptor) (Rattus norvegicus, UniProt P49684).
T1 construct: expressed in transfected cells
T1 sequence (P49684 1-386): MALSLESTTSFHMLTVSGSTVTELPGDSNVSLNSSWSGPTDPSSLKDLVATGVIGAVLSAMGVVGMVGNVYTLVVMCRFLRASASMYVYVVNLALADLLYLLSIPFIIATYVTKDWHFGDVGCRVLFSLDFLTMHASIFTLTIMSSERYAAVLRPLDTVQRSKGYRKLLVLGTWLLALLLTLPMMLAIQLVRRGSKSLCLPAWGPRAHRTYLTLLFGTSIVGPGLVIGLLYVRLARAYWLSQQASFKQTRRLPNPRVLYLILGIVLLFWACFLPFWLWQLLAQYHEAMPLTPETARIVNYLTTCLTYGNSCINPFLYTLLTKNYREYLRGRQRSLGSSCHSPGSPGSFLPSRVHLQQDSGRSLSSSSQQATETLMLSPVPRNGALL
The experiment in a line: Rat UII Calcium Mobilization FLIPR Assay. The conditions noted are these: for inhibition at 10 µM / inhibition at 50 µM: CHO, 5 min, agonist-induced Ca2+ mobilization (FLIPR), CHO cells with rat UII receptor; for inhibition at 10 µM: 10 μM compound, read-out: % I @ 10; for inhibition at 50 µM: 50 μM compound, read-out: % I @ 50; for IC50: Inhibition of Acetyl-cyclic[Cys-Phe-Trp-Lys-(2-Nal)-Cys]-NH2 induced Ca2+ mobilization (FLIPR) in CHO cells transfected with rat UII receptor, read-out: IC50. Format: cell-based. From the text:
To derive these cells, the complete coding sequence of rat U-II (Genbank Accession No. U32673) was amplified by nested PCR from rat heart marathon-Ready cDNA. […] The PCR products were cloned into pcDNA3 (Invitrogen) digested with EcoR I and Xba I. Clones containing rat U-II receptor were verified by complete sequencing of the U-II receptor insert to ensure a lack of PCR-introduced errors. The constructed vector was transfected into CHO cells by using lipofectamine (GIBCO BRL). CHO cells with high expression of rat U-II receptor were selected and established as stable cell lines by using G418. CHO cells were seeded at 25,000 cells per well into 96-well, black-wall, clear-bottom microtiter plates 24 h before assay. Cells in culture media (DMEM/F12 containing 15 mM HEPES, L-glutamine, pyridoxine hydrochloride; 10% fetal bovine serum; 1 mg/mL G418 sulfate; antibiotic-antimycotic; pH 7.4) were loaded with proprietary dye, from the FLIPR Calcium Assay Kit (Molecular Devices), prepared in assay buffer (Hanks Balanced Salts Solution, 20 mM HEPES, 0.1% BSA, 2.5 mM probenecid, pH 7.4), and incubated for 1 h at 37° C. Calcium mobilization determinations were performed at room temperature (23° C.).
On the technique in general: A change in cytosolic calcium serves as a functional read-out for many receptors and channels.

A word on the IC50: it is the point on the concentration scale where inhibition reaches its midpoint. With `COc1ccc(CN2C(=O)c3c(Cl)ccc(N4CCN([C@H](C)c5ccccc5)CC4)c3C2=O)cc1OC` [Cpd 10, 4-chloro-2-(3,4-dimethoxy-benzyl)-7-[4-(1R)-(1-phenyl-ethyl)-piperazin-1-yl]-isoindole-1,3-dione], the inhibition at 10 µM is 100%, the inhibition at 50 µM came to 106% and the IC50 turned out to be 0.21 µM.

As for `COc1cc2c(cc1OC)C(N1C(=O)c3cccc(N4CCN(Cc5ccccc5)CC4)c3C1=O)CC2` (stereo not drawn) [Cpd 11, 4-(4-benzyl-piperazin-1-yl)-2-(5,6-dimethoxy-indan-1-yl)-isoindole-1,3-dione], the inhibition at 10 µM worked out at 100%, the inhibition at 50 µM is 101% and the IC50 is 0.34 µM.

Regarding `COc1ccc(CN2C(=O)c3cccc(N4CCN([C@@H](C)c5ccccc5)CC4)c3C2=O)cc1OC` [Cpd 14, 2-(3,4-dimethoxy-benzyl)-4-[4-(1S)-(1-phenyl-ethyl)-piperazin-1-yl]-isoindole-1,3-dione], the inhibition at 10 µM worked out at 98%, the inhibition at 50 µM turned out to be 101% and the IC50 came to 0.49 µM.

Regarding `COc1ccc(CN2C(=O)c3cccc(N4CCN(Cc5c(F)cccc5F)CC4)c3C2=O)cc1OC` [Cpd 16, 4-[4-(2,6-difluoro-benzyl)-piperazin-1-yl]-2-(3,4-dimethoxy-benzyl)-isoindole-1,3-dione], the inhibition at 10 µM was determined as 91%; the inhibition at 50 µM was found to be 97%; the IC50 is 0.86 µM and 1.1 µM.

As to `COc1ccc(CN2C(=O)c3cccc(N4CCN(C5CCc6ccccc65)CC4)c3C2=O)cc1OC` (stereo not drawn) [Cpd 20, 2-(3,4-dimethoxy-benzyl)-4-(4-indan-1-yl-piperazin-1-yl)-isoindole-1,3-dione], the inhibition at 10 µM stood at 78%, the inhibition at 50 µM is 15% and the IC50 amounted to 1.5 µM.

Consider `CCOc1cc(CN2C(=O)c3cccc(N4CCN([C@H](C)c5ccccc5)CC4)c3C2=O)ccc1OC` [Cpd 21, 2-(3-ethoxy-4-methoxy-benzyl)-4-[4-(1R)-(1-phenyl-ethyl)-piperazin-1-yl]-isoindole-1,3-dione], for which the inhibition at 10 µM was 90%, the inhibition at 50 µM was 98% and the half-inhibitory concentration (IC50) was 1.7 µM.

Take `COc1ccc(CN2C(=O)c3cccc(N4CCN(CCc5ccccc5)CC4)c3C2=O)cc1OC` [Cpd 22, 2-(3,4-dimethoxy-benzyl)-4-(4-phenethyl-piperazin-1-yl)-isoindole-1,3-dione]: the inhibition at 10 µM is 100%, the inhibition at 50 µM is 100% and the IC50 is 1.9 µM.

For `Cc1nn(C)c(C)c1CN1C(=O)c2cccc(N3CCN(Cc4ccccc4)CC3)c2C1=O` [Cpd 23, 4-(4-benzyl-piperazin-1-yl)-2-(1,3,5-trimethyl-1H-pyrazol-4-ylmethyl)-isoindole-1,3-dione], the inhibition at 10 µM came to 62%, the inhibition at 50 µM worked out at 101% and the IC50 stood at 1.9 µM.

For the compound `COc1ccc(CN2C(=O)c3cccc(N4CCN(Cc5ccc(F)cc5F)CC4)c3C2=O)cc1OC` [Cpd 24, 4-[4-(2,4-difluoro-benzyl)-piperazin-1-yl]-2-(3,4-dimethoxy-benzyl)-isoindole-1,3-dione], the inhibition at 10 µM is 96%, the inhibition at 50 µM came out at 100% and the IC50 came out at 2.1 µM.

For the compound `COc1ccc(CCN2C(=O)c3cccc(N4CC5CCC(C4)N5Cc4ccccc4)c3C2=O)cc1OC` [Cpd 25, 4-(8-benzyl-3,8-diaza-bicyclo[3.2.1]oct-3-yl)-2-[2-(3,4-dimethoxy-phenyl)-ethyl]-isoindole-1,3-dione], the inhibition at 10 µM was determined as 90%, the inhibition at 50 µM was 100% and the IC50 was 2.8 µM.

As for `COc1cc(CN2C(=O)c3cccc(N4CC5CCC(C4)N5Cc4ccccc4)c3C2=O)cc(OC)c1OC` [Cpd 26, 4-(8-benzyl-3,8-diaza-bicyclo[3.2.1]oct-3-yl)-2-(3,4,5-trimethoxy-benzyl)-isoindole-1,3-dione], the inhibition at 10 µM came to 81%, the inhibition at 50 µM is 94% and the IC50 is 3.4 µM.

For `COc1ccc(CN2C(=O)c3cccc(N4CCN(C(c5ccccc5)C5CC5)CC4)c3C2=O)cc1OC` (stereo not drawn) [Cpd 27, 4-[4-(cyclopropyl-phenyl-methyl)-piperazin-1-yl]-2-(3,4-dimethoxy-benzyl)-isoindole-1,3-dione], the inhibition at 10 µM was 78%, the inhibition at 50 µM worked out at 100% and the IC50 is 3.8 µM.

As to `COc1ccc(CN2C(=O)c3cccc(N4CCN(Cc5cc(F)ccc5F)CC4)c3C2=O)cc1OC` [Cpd 29, 4-[4-(2,5-difluoro-benzyl)-piperazin-1-yl]-2-(3,4-dimethoxy-benzyl)-isoindole-1,3-dione], the inhibition at 10 µM was 77%, the inhibition at 50 µM amounted to 95% and the IC50 was found to be 4.4 µM.

Take `COc1ccc([C@H](CC(=O)O)N2C(=O)c3cccc(N4CCN([C@H](C)c5ccccc5)CC4)c3C2=O)cc1OC` [Cpd 30, (S)-3-(3,4-dimethoxy-phenyl)-3-{1,3-dioxo-4-[4-(1R)-(1-phenyl-ethyl)-piperazin-1-yl]-1,3-dihydro-isoindol-2-yl}-propionic acid]: the inhibition at 10 µM was determined as 80%, the inhibition at 50 µM worked out at 99% and the IC50 stood at 4.4 µM.

`COc1ccc(CN2C(=O)c3cccc(N4CCN(Cc5ccccc5Cl)CC4)c3C2=O)cc1OC` [Cpd 31, 4-[4-(2-chloro-benzyl)-piperazin-1-yl]-2-(3,4-dimethoxy-benzyl)-isoindole-1,3-dione]: the inhibition at 10 µM was found to be 65%, the inhibition at 50 µM turned out to be 89% and the IC50 was 4.5 µM.

In the case of `COc1ccc(CN2C(=O)c3cccc(N4CC5CCC(C4)N5C(C)c4ccccc4)c3C2=O)cc1OC` (stereo not drawn) [Cpd 32, 2-(3,4-dimethoxy-benzyl)-4-[8-(1-phenyl-ethyl)-3,8-diaza-bicyclo[3.2.1]oct-3-yl]-isoindole-1,3-dione], the inhibition at 10 µM was 73%, the inhibition at 50 µM turned out to be 93% and the IC50 was determined as 4.9 µM.

Consider `COc1ccc(CN2C(=O)c3cccc(N4CCN(Cc5ccccc5C)CC4)c3C2=O)cc1OC` [Cpd 33, 2-(3,4-dimethoxy-benzyl)-4-[4-(2-methyl-benzyl)-piperazin-1-yl]-isoindole-1,3-dione], for which the inhibition at 10 µM was determined as 60%, the inhibition at 50 µM worked out at 97% and the IC50 was determined as 5 µM.

In the case of `COc1cc(CN2C(=O)c3cccc(N4CCN(Cc5ccccc5)CC4)c3C2=O)cc(OC)c1OC` [Cpd 34, 4-(4-benzyl-piperazin-1-yl)-2-(3,4,5-trimethoxy-benzyl)-isoindole-1,3-dione], the inhibition at 10 µM is 64%, the inhibition at 50 µM stood at 94% and the IC50 came to 5.9 µM.

`C#CC(c1ccccc1)N1CCN(c2cccc3c2C(=O)N(Cc2ccc(OC)c(OC)c2)C3=O)CC1` (stereo not drawn) [Cpd 35, 2-(3,4-dimethoxy-benzyl)-4-[4-(1-phenyl-prop-2-ynyl)-piperazin-1-yl]-isoindole-1,3-dione]: the inhibition at 10 µM was 55%, the inhibition at 50 µM is 65% and the IC50 was 6.3 µM.

For the compound `COc1ccc(CN2C(=O)c3cccc(N4CCN(Cc5cccc(C)c5)CC4)c3C2=O)cc1OC` [Cpd 36, 2-(3,4-dimethoxy-benzyl)-4-[4-(3-methyl-benzyl)-piperazin-1-yl]-isoindole-1,3-dione], the inhibition at 10 µM is 63%, the inhibition at 50 µM was found to be 82% and the IC50 was 6.5 µM.

On to `COc1ccc(CN2C(=O)c3cccc(N[C@@H]4CCCC[C@H]4NCc4ccccc4)c3C2=O)cc1OC` [Cpd 37, 4-(1R,2R)-(2-benzylamino-cyclohexylamino)-2-(3,4-dimethoxy-benzyl)-isoindole-1,3-dione], for which the inhibition at 10 µM came to 62%, the inhibition at 50 µM is 71% and the IC50 worked out at 6.9 µM.

Consider `COc1ccc(CN2C(=O)c3cccc(N4CCN(Cc5ccccc5C#N)CC4)c3C2=O)cc1OC` [Cpd 38, 2-{4-[2-(3,4-dimethoxy-benzyl)-1,3-dioxo-2,3-dihydro-1H-isoindol-4-yl]-piperazin-1-ylmethyl}-benzonitrile], for which the inhibition at 10 µM is 56%, the inhibition at 50 µM was 94% and the IC50 turned out to be 7.6 µM.

Take `O=C1c2cccc(N3CC4CCC(C3)N4Cc3ccccc3)c2C(=O)N1Cc1ccncc1` [Cpd 39, 4-(8-benzyl-3,8-diaza-bicyclo[3.2.1]oct-3-yl)-2-pyridin-4-ylmethyl-isoindole-1,3-dione]: the inhibition at 10 µM is 47%, the inhibition at 50 µM was 101% and the IC50 came out at 8.9 µM.
